{"source": "paper PMC9327782", "about": "“Benzoxazole derivatives as new VEGFR-2 inhibitors and apoptosis inducers: design, synthesis, in silico studies, and antiproliferative evaluation” (Journal of Enzyme Inhibition and Medicinal Chemistry, 2022)", "tested_on": "BAX", "assay": "Western blot, BAX level in HepG2 cells", "assay_type": "cell-based, human", "conditions": "HepG2, 24 h", "experimental": "Compound 12lwas subjected to further cellular mechanistic study. The cellular levels of BAX and Bcl-2 were measured using the western blot technique after compound 12l was applied to HepG2 cells for 24 h.\nThe western blot technique was applied in accordance with the comprehensive description in Supplementary data[38–40] […]\nThe proteins expression of cleaved caspase‐3, BAX, and Bcl‐2 were determined using Western blot analysis. In brief, HepG2 cells were treated with control, or with the synthesized compounds.\nThen cells were lysed in 250 μL precold lysis buffer (pH 7.4: Tris‐Base [10 mM], NaCl [100 mM], ethylenediaminetetraacetic acid [EDTA, 25 mM], ethylene glycol bis (2‐aminoethyl) tetraacetic acid [EGTA, 25 mM], 1% [v/v] NP‐40, and 1% [v/v] Triton X‐100) supplemented with 1:350 protease:phosphatase inhibitors cocktail (Sigma). The cells were immediately frozen at −20°C for 1.5 hours for further lysis, collected by cell scraper, sonicated 3 × 10 seconds, and centrifuged (13000 rpm, 15 minutes). Total protein concentrations in the supernatant were determined colorimetrically using the Pierce 660 nm Protein Assay method (Thermo Fisher Scientific, Rockford, IL), with BSA as the standard. Equal amounts of protein (25 μg) samples were mixed with SDS‐loading buffer (pH 6.8: Tris‐HCl [700 mM], dithiothreitol [DTT, 600 mM], sodium dodecyl sulfate [SDS, 12%], glycerol [60%], and bromophenol blue [0.012%]), denatured by boiling at 95°C for 10 minutes, allowed to cool on ice for 15 minutes, vortexed vigorously for 30 seconds and loaded into SDS‐polyacrylamide gel and separated by an electrophoresis unit (Cleaver Scientific Ltd, UK), transferred onto polyvinylidene fluoride membranes (Bio‐Rad) for 35 minutes using a Trans‐Blot SD semi‐dry transfer cell (Bio‐Rad) at 250 mA and 22 V. Membranes were blocked with 5% (w/v) blotting grade dry milk (Bio‐Rad) in Tris‐buffered saline/Tween‐20 (TBS‐ T) (pH 7.5: Tris‐base [20 mM], NaCl [150 mM], and 0.05% [v/v] Tween‐ 20) while shaking for 1.5 hour at RT, and then incubated with the corresponding primary antibody against cleaved caspase‐3 antibody ([…], #9661; Cell Signaling Technology), β‐actin (1:2000, #A5060; Sigma), BAX (Biovision, USA) and Bcl‐2( Bioimaging, system, syngene, UK) for 9‐10 hours at 4°C in a […]\nthree separate experiments. […]\nthe synthesized compounds towards VEGFR-2. The crystal structure of VEGFR-2 was […]\n2.03 Å). Sorafenib was used as reference ligand. To prepare the target protein, water molecules […]\nfields. […] The validation […]\nprocess was performed by redocking the co-crystallized ligand. The designed compounds together […]\nfollowed by energy minimization then prepared for docking. Docking process was carried through […]\nbinding mode with target molecule."}
{"molecule": "Cc1ccc2oc(SCC(=O)Nc3ccc(C(=O)Nc4cccc(Cl)c4)cc3)nc2c1", "note": "[Compound 12l, N-(3-Chlorophenyl)-4–(2-((5-methylbenzo[d]oxazol-2-yl)thio)acetamido)benzamide]", "values": [{"measurement": "Protein expression (normalized to β-actin) BAX", "setting": "control = 1.00", "value": "3.40 ± 0.15"}, {"measurement": "Protein expression (normalized to β-actin) BAX/Bcl-2 ratio", "setting": "control = 1.00", "value": "6.83 ± 0.96"}, {"measurement": "BAX level increase", "setting": "versus control", "value": 3.40, "unit": "fold"}, {"measurement": "BAX/Bcl-2 ratio increase", "setting": "versus control", "value": 6.83, "unit": "fold"}]}
